This is an account of results in US12319655B2, “RAF kinase inhibitors and methods of use thereof” (Deciphera Pharmaceuticals, LLC, priority 2021, dated 2025).

A word on the IC50: it is the point on the concentration scale where inhibition reaches its midpoint.

In one assay the test system is H2405 cells. Put plainly: H2405 Cell Proliferation Assay (1). It is filed as cell-based. To be noted: Homo sapiens, NCI-H2405. The essentials:
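Viability was read by resazurin reduction (ex 540 nm, em 600 nm; 5-6 h with 40 μL of 440 μM stock) after 67-72 h compound exposure at 37 °C.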

The next assay deals with Miapaca-2 cells. As to the kind of experiment: MiaPaca-2 Cell Proliferation Assay (1). It is filed as cell-based. As to conditions: Homo sapiens, MIA PaCa-2, single agent, read-out: MiaPaca2 (1) IC50. The essentials:
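Resazurin was added after compound exposure and incubated 5-6 h, then fluorescence read at 540 nm excitation and 600 nm emission to give IC50.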

In assay [1] the target is B-Raf (V600E) (SEQ. ID NO: 4) kinase (Homo sapiens (Human), UniProt P15056, V600E). As to the kind of experiment: Biochemical Assay for B-Raf (V600E) (1). To be noted: Table J, BRAF V600E, assay version (1); read-out: BRAF VE (1) IC50. The essentials:
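Serially diluted compounds tested against 0.03 nM enzyme with 30.1 nM MEK substrate and 1 mM ATP (Tris pH 7.5, 15 mM MgCl2), ATP use coupled to NADH loss via PK/LDH. A340 monitored continuously 6 h, 30 °C; IC50 fitted (four-parameter) from the 3–4 h rate versus no-compound and known-inhibitor controls.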

Assay [2] addresses A-Raf kinase (SEQ. ID No: 1) (Homo sapiens (Human), UniProt P10398, Y301D/Y302D). As to the kind of experiment: Biochemical Assay for A-Raf (1). To be noted: Table J, assay version (1); read-out: ARAF (1) IC50. The essentials: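 IC50 values were derived by four-parameter sigmoidal fitting of percent inhibition, calculated from reaction rates over the 4–5 h window. Absorbance at 340 nm was tracked for 6 h at 30 °C via coupled PK/LDH NADH depletion. Conditions: 1 mM ATP, 30.1 nM MEK substrate, 5.55 nM A-Raf (Y301D/Y302D), Tris pH 7.5, 1% DMSO.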

A-Raf kinase (SEQ. ID No: 1), sequence (P10398 other isoform, or with tags, fused parts or gaps Y301D (already in the parent)/Y302D (already in the parent)): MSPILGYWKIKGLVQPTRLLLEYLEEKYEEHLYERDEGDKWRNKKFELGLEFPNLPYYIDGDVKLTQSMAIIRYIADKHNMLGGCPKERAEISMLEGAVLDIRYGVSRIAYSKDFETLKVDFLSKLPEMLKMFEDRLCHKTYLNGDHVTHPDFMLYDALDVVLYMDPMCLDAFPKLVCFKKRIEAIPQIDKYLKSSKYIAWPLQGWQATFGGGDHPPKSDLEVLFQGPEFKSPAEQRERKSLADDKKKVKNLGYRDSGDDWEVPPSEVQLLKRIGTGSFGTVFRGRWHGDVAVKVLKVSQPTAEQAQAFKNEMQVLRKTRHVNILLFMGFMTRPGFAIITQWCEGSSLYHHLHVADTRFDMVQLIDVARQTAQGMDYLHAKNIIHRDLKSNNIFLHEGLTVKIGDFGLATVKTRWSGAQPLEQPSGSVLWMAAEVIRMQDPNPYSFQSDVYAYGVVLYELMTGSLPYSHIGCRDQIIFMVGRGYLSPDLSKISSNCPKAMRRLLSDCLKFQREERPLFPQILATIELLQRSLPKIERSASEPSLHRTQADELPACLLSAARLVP
B-Raf (V600E) (SEQ. ID NO: 4) kinase, sequence (P15056 416-766 V600E): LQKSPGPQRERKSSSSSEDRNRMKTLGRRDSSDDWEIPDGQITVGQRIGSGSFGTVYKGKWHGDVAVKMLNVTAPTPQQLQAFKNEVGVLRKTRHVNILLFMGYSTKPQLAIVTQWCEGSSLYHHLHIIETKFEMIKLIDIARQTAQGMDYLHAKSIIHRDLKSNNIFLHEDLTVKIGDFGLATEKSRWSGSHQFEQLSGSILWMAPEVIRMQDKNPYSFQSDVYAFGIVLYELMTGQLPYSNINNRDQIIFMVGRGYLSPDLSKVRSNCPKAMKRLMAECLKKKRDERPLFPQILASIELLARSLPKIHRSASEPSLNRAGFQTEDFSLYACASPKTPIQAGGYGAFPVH

As to `COC(=O)Nc1cc(-c2cc(-c3cc(NC(=O)c4ccnc(C(F)(F)F)c4)cnc3C)ccn2)ccn1` [Example 312], the concentration for half-maximal inhibition (IC50) in the assay on H2405 cells fell in the range of 100 to 500 nM; in the assay on Miapaca-2 cells, 1 to 10 µM; in assay [1] it was 500 to 1000 nM; in assay [2], 1 to 10 µM.
For `Cc1cc(F)c(NC(=O)c2ccnc(C(C)(C)C#N)c2)cc1-c1cc(-c2ccnc(NC(=O)C3CC3)c2)cnn1` [Example 298], the IC50 in the assay with H2405 cells was 100 to 500 nM; in the assay with Miapaca-2 cells, 1 to 10 µM; in assay [1] it was at most 100 nM; in assay [2], 1 to 10 µM.
`COC(=O)Nc1cc(-c2cnnc(-c3cc(NC(=O)c4ccnc(C(C)(C)C#N)c4)cnc3C)c2)ccn1` [Example 306]: the IC50 lay in the range of 1000 to 10000 nM with H2405 cells, 1 to 10 µM in the assay on Miapaca-2 cells, 100 to 500 nM in assay [1] and 1 to 10 µM in assay [2].
As for `CC(=O)Nc1cc(-c2cncc(-c3cc(NC(=O)c4ccnc(C(F)(F)F)c4)ccc3C)n2)ccn1` [Example 29], the 50% inhibitory concentration (IC50) was at most 100 nM in the assay on H2405 cells, 1 to 10 µM in the assay on Miapaca-2 cells, at most 100 nM in assay [1] and 1 to 10 µM in assay [2].
As for `Cc1ncc(NC(=O)c2cn(C(C)C)nn2)cc1-c1ccnc(-c2ccnc(NC(=O)C3CC3)c2)n1` [Example 281], the half-maximal inhibitory concentration (IC50) in the assay with H2405 cells is 100 to 500 nM; in the assay on Miapaca-2 cells, 1 to 10 µM; in assay [1] it was at most 100 nM; in assay [2], 1 to 10 µM.
In the case of `COC(=O)Nc1cc(-c2cccc(-c3cc(NC(=O)c4ccnc(C(C)(C)C#N)c4)cnc3C)c2)ccn1` [Example 282], the IC50 in the assay with H2405 cells was 500 to 1000 nM; in the assay with Miapaca-2 cells it was 1 to 10 µM; in assay [1] it was at most 100 nM; in assay [2], 1 to 10 µM.
`COC(=O)Nc1cc(-c2cc(-c3cc(NC(=O)c4ccnc(C(C)(C)C#N)c4)cnc3C)ccn2)ccn1` [Example 297]: the 50% inhibitory concentration (IC50) is at most 100 nM in the assay on H2405 cells, 1 to 10 µM in the assay on Miapaca-2 cells, at most 100 nM in assay [1] and 1 to 10 µM in assay [2].
